# From ChEMBL document CHEMBL1147476, “Synthesis and evaluation of aminophosphinic acid derivatives as inhibitors of renal dipeptidase” (Bioorg Med Chem Lett, 2004)
# pIC50: −log10 of the molar value.
# Molecular target: T1, Dipeptidase 1 (Homo sapiens, UniProt P16444)
# T1 sequence (P16444 whole entry): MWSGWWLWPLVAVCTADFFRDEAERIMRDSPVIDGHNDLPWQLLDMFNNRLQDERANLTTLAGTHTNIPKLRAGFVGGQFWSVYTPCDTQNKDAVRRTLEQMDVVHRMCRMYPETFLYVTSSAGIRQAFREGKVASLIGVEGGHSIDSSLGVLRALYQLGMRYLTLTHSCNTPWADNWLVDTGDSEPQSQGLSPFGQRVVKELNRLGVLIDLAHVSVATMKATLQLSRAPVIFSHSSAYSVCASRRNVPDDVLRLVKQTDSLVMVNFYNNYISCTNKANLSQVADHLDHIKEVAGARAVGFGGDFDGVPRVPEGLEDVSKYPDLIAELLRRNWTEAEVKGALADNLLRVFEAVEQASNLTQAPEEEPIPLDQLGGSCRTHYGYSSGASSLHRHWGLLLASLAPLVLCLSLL
# Assay: Concentration required to inhibit renal dipeptidase (RDP) by 50% in crude lysates prepared from human colon cancer
row,Structure (SMILES),pIC50
1,NC(CC1CCCCC1)P(=O)(O)C/C(=C/c1cccc(I)c1)C(=O)O (centres undefined),6.60
2,NC(CC1CCCCC1)P(=O)(O)C/C(=C/c1ccc(Cl)c(Cl)c1)C(=O)O (centres undefined),6.70
3,NC(CC1CCCCC1)P(=O)(O)C/C(=C/c1ccc(F)c(Cl)c1)C(=O)O (centres undefined),6.46
4,NC(CC1CCCCC1)P(=O)(O)C/C(=C\c1cccc(I)c1)C(=O)O (centres undefined),7.35
5,NC(CC1CCCCC1)P(=O)(O)C/C(=C\c1ccccc1I)C(=O)O (centres undefined),7.00
6,NC(CC1CCCCC1)P(=O)(O)C/C(=C/c1ccccc1I)C(=O)O (centres undefined),6.00
7,NC(CC1CCCCC1)P(=O)(O)C/C(=C\c1ccc(Cl)c(Cl)c1)C(=O)O (centres undefined),7.70
8,NC(CC1CCCCC1)P(=O)(O)C/C(=C\c1ccc(F)c(Cl)c1)C(=O)O (centres undefined),7.52

# Results, then the molecule that gave them:
row,pIC50,Structure (SMILES)
1,8.22,NC(CC1CCCCC1)P(=O)(O)C/C(=C\c1ccc(Br)cc1)C(=O)O (centres undefined)
2,5.52,NC(CC1CCCCC1)P(=O)(O)C/C(=C/c1ccc(F)c(Br)c1)C(=O)O (centres undefined)
3,7.82,NC(CC1CCCCC1)P(=O)(O)C/C(=C/c1ccc(F)cc1)C(=O)O (centres undefined)
4,7.15,Nc1ccc(/C=C(\CP(=O)(O)C(N)CC2CCCCC2)C(=O)O)cc1 (centres undefined)
5,8.30,NC(CC1CCCCC1)P(=O)(O)C/C(=C\c1ccc(F)cc1)C(=O)O (centres undefined)
6,6.82,Nc1ccc(/C=C(/CP(=O)(O)C(N)CC2CCCCC2)C(=O)O)cc1 (centres undefined)
7,7.52,NC(CC1CCCCC1)P(=O)(O)C/C(=C/c1ccc(Br)cc1)C(=O)O (centres undefined)
8,8.10,NC(CC1CCCCC1)P(=O)(O)C/C(=C\c1ccc(I)cc1)C(=O)O (centres undefined)
9,7.40,NC(CC1CCCCC1)P(=O)(O)C/C(=C\c1ccc(F)c(Br)c1)C(=O)O (centres undefined)
10,7.60,NC(CC1CCCCC1)P(=O)(O)C/C(=C/c1ccc(I)cc1)C(=O)O (centres undefined)
11,6.70,NC(CC1CCCCC1)P(=O)(O)C/C(=C/c1ccc(C(F)(F)F)cc1)C(=O)O (centres undefined)
